From patent US9133158B2, “Bicyclic dihydroisoquinoline-1-one derivatives” (Hoffmann-La Roche Inc., priority 2011, dated 2015)

Assays:
human CYP11B2 = target: T1, human CYP11B2 (Homo sapiens, UniProt P19099); assay: G-402 cellular enzyme assay, human CYP11B2 (aldosterone release, HTRF); assay type: cell-based; conditions: G-402 cells, 1 μM Deoxycorticosterone
T1 construct: expressed in transfected cells
T1 sequence (P19099 25-503): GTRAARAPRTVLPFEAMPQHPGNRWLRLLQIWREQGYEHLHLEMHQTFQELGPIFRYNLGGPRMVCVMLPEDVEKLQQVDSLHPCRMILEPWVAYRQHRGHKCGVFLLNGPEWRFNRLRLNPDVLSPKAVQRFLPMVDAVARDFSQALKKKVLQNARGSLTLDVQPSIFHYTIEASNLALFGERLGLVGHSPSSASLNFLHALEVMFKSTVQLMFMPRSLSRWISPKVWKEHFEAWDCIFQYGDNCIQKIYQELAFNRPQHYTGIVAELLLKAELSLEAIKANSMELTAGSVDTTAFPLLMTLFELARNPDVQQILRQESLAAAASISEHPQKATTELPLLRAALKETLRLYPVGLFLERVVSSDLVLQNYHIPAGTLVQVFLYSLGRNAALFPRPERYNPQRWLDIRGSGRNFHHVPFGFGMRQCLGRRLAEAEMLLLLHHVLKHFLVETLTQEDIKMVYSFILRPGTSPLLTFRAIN
Outline: (§1)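 G-402 cells stably expressing human CYP11B1 or CYP11B2, in DMEM/F12 with 2.5% charcoal-treated FCS, were incubated 16 h with test compound and substrate (1 μM 11-deoxycortisol for CYP11B1; 1 μM deoxycorticosterone for CYP11B2). Cortisol or aldosterone in supernatant was quantified by HTRF; EC50 from 4-parameter MMF fit.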

human CYP11B1 = target: T2, human CYP11B1 (Homo sapiens, UniProt P15538); assay: G-402 cellular enzyme assay, human CYP11B1 (cortisol release, HTRF); assay type: cell-based; conditions: G-402 cells, 1 μM Deoxycortisol
T2 construct: expressed in transfected cells
T2 sequence (P15538 25-503): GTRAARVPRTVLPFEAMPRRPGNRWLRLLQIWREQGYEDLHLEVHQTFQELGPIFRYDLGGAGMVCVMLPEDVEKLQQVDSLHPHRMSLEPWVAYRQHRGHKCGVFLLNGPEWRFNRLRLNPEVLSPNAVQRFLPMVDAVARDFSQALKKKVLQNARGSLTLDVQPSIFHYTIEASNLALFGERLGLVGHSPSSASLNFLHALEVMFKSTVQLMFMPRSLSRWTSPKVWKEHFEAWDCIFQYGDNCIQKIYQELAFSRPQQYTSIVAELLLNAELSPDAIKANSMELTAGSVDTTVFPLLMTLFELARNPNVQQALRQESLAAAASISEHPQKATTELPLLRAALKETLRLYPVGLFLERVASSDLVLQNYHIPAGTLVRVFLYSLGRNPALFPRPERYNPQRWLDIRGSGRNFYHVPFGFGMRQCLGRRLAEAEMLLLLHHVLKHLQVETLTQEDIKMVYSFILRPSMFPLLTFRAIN
Outline: as §1

EC50 (human CYP11B2) [nM] | EC50 (human CYP11B1) [nM] | SMILES
751 | 2070 | Cn1ccnc1C(O)c1cncc(N2CCc3cc(Cl)ccc3C2=O)c1 (stereo not shown) [Example 30, 6-Chloro-2-{5-[hydroxy-(1-methyl-1H-imidazol-2-yl)-methyl]-pyridin-3-yl}-3,4-dihydro-2H-isoquinolin-1-one]
50.2 | 328 | O=C1c2ccc(Cl)cc2CCN1c1cncc(C(O)c2ccc(F)c(F)c2)c1 (stereo not shown) [Example 31, 6-Chloro-2-{5-[(3,4-difluoro-phenyl)-hydroxy-methyl]-pyridin-3-yl}-3,4-dihydro-2H-isoquinolin-1-one]
46.8 | 514 | O=C1c2ccc(Cl)cc2CCN1c1cncc(C(O)c2cc(F)cc(F)c2)c1 (stereo not shown) [Example 32, 6-Chloro-2-{5-[(3,5-difluoro-phenyl)-hydroxy-methyl]-pyridin-3-yl}-3,4-dihydro-2H-isoquinolin-1-one]
210 | 485 | CCc1ccc(C(O)c2cncc(N3CCc4cc(Cl)ccc4C3=O)c2)cc1 (stereo not shown) [Example 33, 6-Chloro-2-{5-[(4-ethyl-phenyl)-hydroxy-methyl]-pyridin-3-yl}-3,4-dihydro-2H-isoquinolin-1-one]
31.6 | 287 | O=C1c2ccc(Cl)cc2CCN1c1cncc(C(O)c2ccccc2)c1 (stereo not shown) [Example 34, 6-Chloro-2-[5-(hydroxy-phenyl-methyl)-pyridin-3-yl]-3,4-dihydro-2H-isoquinolin-1-one]
18.8 | 146 | CC(O)(c1ccccc1)c1cncc(N2CCc3cc(Cl)ccc3C2=O)c1 (stereo not shown) [Example 35, 6-Chloro-2-[5-(1-hydroxy-1-phenyl-ethyl)-pyridin-3-yl]-3,4-dihydro-2H-isoquinolin-1-one]
14 | 188 | CC(O)(c1cncc(N2CCc3cc(Cl)ccc3C2=O)c1)c1ccc(F)c(F)c1 (stereo not shown) [Example 36, 6-Chloro-2-{5-[1-(3,4-difluoro-phenyl)-1-hydroxy-ethyl]-pyridin-3-yl}-3,4-dihydro-2H-isoquinolin-1-one]
9.2 | 149 | CC(O)(c1cc(F)cc(F)c1)c1cncc(N2CCc3cc(Cl)ccc3C2=O)c1 (stereo not shown) [Example 37, 6-Chloro-2-{5-[1-(3,5-difluoro-phenyl)-1-hydroxy-ethyl]-pyridin-3-yl}-3,4-dihydro-2H-isoquinolin-1-one]
1070 | 8390 | Cc1cncc(N2CCc3cc(Cl)ccc3C2=O)n1 [Example 38, 6-Chloro-2-(6-methyl-pyrazin-2-yl)-3,4-dihydro-2H-isoquinolin-1-one]
1090 | 10000 | O=C(c1cncc(N2CCc3cc(Cl)ccc3C2=O)c1)N1CCOCC1 [Example 39, 6-Chloro-2-[5-(morpholine-4-carbonyl)-pyridin-3-yl]-3,4-dihydro-2H-isoquinolin-1-one]
1680 | 10500 | O=C(c1cncc(N2CCc3cc(Cl)ccc3C2=O)c1)N1CCC(O)C1 (stereo not shown) [Example 40, 6-Chloro-2-[5-(3-hydroxy-pyrrolidine-1-carbonyl)-pyridin-3-yl]-3,4-dihydro-2H-isoquinolin-1-one]
3750 | 6080 | CN(C)C(=O)c1cncc(N2CCc3cc(Cl)ccc3C2=O)c1 [Example 41, 5-(6-Chloro-1-oxo-3,4-dihydro-1H-isoquinolin-2-yl)-N,N-dimethyl-nicotinamide]
327 | 7860 | O=C(c1cncc(N2CCc3cc(Cl)ccc3C2=O)c1)N1CCCC1 [Example 42, 6-Chloro-2-[5-(pyrrolidine-1-carbonyl)-pyridin-3-yl]-3,4-dihydro-2H-isoquinolin-1-one]
5930 | 16900 | O=C(NC1CC1)c1cncc(N2CCc3cc(Cl)ccc3C2=O)c1 [Example 44, 5-(6-Chloro-1-oxo-3,4-dihydro-1H-isoquinolin-2-yl)-N-cyclopropyl-nicotinamide]
698 | 13900 | O=C(Nc1ccccc1)c1cncc(N2CCc3cc(Cl)ccc3C2=O)c1 [Example 46, 5-(6-Chloro-1-oxo-3,4-dihydro-1H-isoquinolin-2-yl)-N-phenyl-nicotinamide]
1030 | 23200 | O=C(c1cncc(N2CCc3cc(Cl)ccc3C2=O)c1)N1CCC(F)(F)CC1 [Example 47, 6-Chloro-2-[5-(4,4-difluoro-piperidine-1-carbonyl)-pyridin-3-yl]-3,4-dihydro-2H-isoquinolin-1-one]

EC50 (human CYP11B2) [nM] | EC50 (human CYP11B1) [nM] | SMILES
141 | 1110 | COC[C@@H]1CCCN1Cc1cncc(N2CCc3cc(Cl)ccc3C2=O)c1 [Example 48, 6-Chloro-2-[5-((S)-2-methoxymethyl-pyrrolidin-1-ylmethyl)-pyridin-3-yl]-3,4-dihydro-2H-isoquinolin-1-one]
49.6 | 188 | COC[C@@H]1CCCN1c1cncc(N2CCc3cc(Cl)ccc3C2=O)c1 [Example 49, 6-Chloro-2-[5-((S)-2-methoxymethyl-pyrrolidin-1-yl)-pyridin-3-yl]-3,4-dihydro-2H-isoquinolin-1-one]
382 | 2460 | O=C1c2ccc(Cl)cc2CCN1c1cccnn1 [Example 52, 6-Chloro-2-pyridazin-3-yl-3,4-dihydro-2H-isoquinolin-1-one]
120 | 10800 | O=c1c2ccc(Cl)cc2ccn1-c1cccnc1 [Example 53, 6-Chloro-2-pyridin-3-yl-2H-isoquinolin-1-one]
343 | 9850 | CC(O)c1ccncc1N1CCc2cc(Cl)ccc2C1=O (stereo not shown) [Example 55, 6-Chloro-2-[4-(1-hydroxy-ethyl)-pyridin-3-yl]-3,4-dihydro-2H-isoquinolin-1-one]
297 | 13800 | O=C1c2ccc(Cl)cc2CCN1c1cnccc1CO [Example 56, 6-Chloro-2-(4-hydroxymethyl-pyridin-3-yl)-3,4-dihydro-2H-isoquinolin-1-one; compound with trifluoro-acctic acid]
1280 | 8000 | NC1(c2cncc(N3CCc4cc(Cl)ccc4C3=O)c2)CC1 [Example 57, 2-[5-(1-Amino-cyclopropyl)-pyridin-3-yl]-6-chloro-3,4-dihydro-2H-isoquinolin-1-one]
8.1 | 135 | CSc1cncc(N2CCc3cc(Cl)ccc3C2=O)c1 [Example 59, 6-Chloro-2-(5-methylsulfanyl-pyridin-3-yl)-3,4-dihydro-2H-isoquinolin-1-one]
70.7 | 794 | O=C1c2ccc(Cl)cc2CCN1c1cncc(OC(F)F)c1 [Example 60, 6-Chloro-2-(5-difluoromethoxy-pyridin-3-yl)-3,4-dihydro-2H-isoquinolin-1-one]
448 | 4430 | O=C1c2ccc(Cl)cc2CCN1c1cnccc1C(O)c1ccc(F)cc1 (stereo not shown) [Example 63, 6-Chloro-2-{4-[(4-fluoro-phenyl)-hydroxy-methyl]-pyridin-3-yl}-3,4-dihydro-2H-isoquinolin-1-one]
127 | 6310 | COC(C)c1ccncc1N1CCc2cc(Cl)ccc2C1=O (stereo not shown) [Example 64, 6-Chloro-2-[4-(1-methoxy-ethyl)-pyridin-3-yl]-3,4-dihydro-2H-isoquinolin-1-one]
97.3 | 2350 | Cn1ccc2cncc(N3CCc4cc(Cl)ccc4C3=O)c21 [Example 65, 6-Chloro-2-(1-methyl-1H-pyrrolo[3,2-c]pyridin-7-yl)-3,4-dihydro-2H-isoquinolin-1-one]
6.9 | 69.7 | O=C1c2ccc(Cl)cc2CCN1c1cncc(C2CC2)c1 [Example 66, 6-Chloro-2-(5-cyclopropyl-pyridin-3-yl)-3,4-dihydro-2H-isoquinolin-1-one]
102 | 1200 | Cn1ncnc1-c1cncc(N2CCc3cc(Cl)ccc3C2=O)c1 [Example 67, 6-Chloro-2-[5-(2-methyl-2H-[1,2,4]triazol-3-yl)-pyridin-3-yl]-3,4-dihydro-2H-isoquinolin-1-one]
6.7 | 157 | O=C1c2ccc(Cl)cc2CCN1c1cncc(OC2CC2)c1 [Example 68, 6-Chloro-2-(5-cyclopropoxy-pyridin-3-yl)-3,4-dihydro-2H-isoquinolin-1-one]
154 | 7540 | COCc1ccncc1N1CCc2cc(Cl)ccc2C1=O [Example 69, 6-Chloro-2-(4-methoxymethyl-pyridin-3-yl)-3,4-dihydro-2H-isoquinolin-1-one]
